Values of other authors, collected in patent US20190314449A1, “CYCLIC DIPEPTIDES AND WOUND HEALING” (THE BOARD OF REGENTS OF THE UNIVERSITY OF TEXAS SYSTEM, priority 2016, published 2019).

What was measured:
[1] = human, acute oral, 24 mg/dose, cited from earlier work
heme oxygenase 1 = conditions: neuronal cultures; cited from earlier work

SMILES: O=C1NC(Cc2c[nH]cn2)C(=O)N2CCCC12 (centres unmarked) [Cyclo-His-Pro]
- time at which plasma CHP levels peak ([1]; plasma): 4 h
- time at which plasma CHP levels return to normal ([1]; plasma): ≤ 24 h
- absorption from the gastrointestinal tract [1]: absorbed from the gastrointestinal tract
- side effects based on physical and blood chemistry examinations [1]: No side effects
- heme oxygenase 1 expression via activation of Nrf-2 ARE signaling (heme oxygenase 1): up-regulate heme oxygenase 1
